Values quoted from earlier work, collected in patent US20090062268A1, “NOVEL INHIBITORS OF POLY(ADP-RIBOSE)POLYMERASE (PARP)” (LEAD THERAPEUTICS, INC., priority 2007, published 2009).
Like-named read-outs stand apart in the source and are kept apart here.

Experiments:
[1] = target: PARP-1 (Homo sapiens, UniProt P09874); conditions: Farmer et al., Nature 2005
[2] = system: BRCA2-deficient cell line V-C8; conditions: BRCA2-deficient V-C8 compared with the BRCA2 wild type control
[3] = system: CAPAN-1 cells; conditions: CAPAN-1 cells in DMEM with FCS (20% v/v), glutamine and antibiotics
[4] = system: BRCA2-deficient tumors

Sequence of PARP-1 (P09874 whole entry, species assumed): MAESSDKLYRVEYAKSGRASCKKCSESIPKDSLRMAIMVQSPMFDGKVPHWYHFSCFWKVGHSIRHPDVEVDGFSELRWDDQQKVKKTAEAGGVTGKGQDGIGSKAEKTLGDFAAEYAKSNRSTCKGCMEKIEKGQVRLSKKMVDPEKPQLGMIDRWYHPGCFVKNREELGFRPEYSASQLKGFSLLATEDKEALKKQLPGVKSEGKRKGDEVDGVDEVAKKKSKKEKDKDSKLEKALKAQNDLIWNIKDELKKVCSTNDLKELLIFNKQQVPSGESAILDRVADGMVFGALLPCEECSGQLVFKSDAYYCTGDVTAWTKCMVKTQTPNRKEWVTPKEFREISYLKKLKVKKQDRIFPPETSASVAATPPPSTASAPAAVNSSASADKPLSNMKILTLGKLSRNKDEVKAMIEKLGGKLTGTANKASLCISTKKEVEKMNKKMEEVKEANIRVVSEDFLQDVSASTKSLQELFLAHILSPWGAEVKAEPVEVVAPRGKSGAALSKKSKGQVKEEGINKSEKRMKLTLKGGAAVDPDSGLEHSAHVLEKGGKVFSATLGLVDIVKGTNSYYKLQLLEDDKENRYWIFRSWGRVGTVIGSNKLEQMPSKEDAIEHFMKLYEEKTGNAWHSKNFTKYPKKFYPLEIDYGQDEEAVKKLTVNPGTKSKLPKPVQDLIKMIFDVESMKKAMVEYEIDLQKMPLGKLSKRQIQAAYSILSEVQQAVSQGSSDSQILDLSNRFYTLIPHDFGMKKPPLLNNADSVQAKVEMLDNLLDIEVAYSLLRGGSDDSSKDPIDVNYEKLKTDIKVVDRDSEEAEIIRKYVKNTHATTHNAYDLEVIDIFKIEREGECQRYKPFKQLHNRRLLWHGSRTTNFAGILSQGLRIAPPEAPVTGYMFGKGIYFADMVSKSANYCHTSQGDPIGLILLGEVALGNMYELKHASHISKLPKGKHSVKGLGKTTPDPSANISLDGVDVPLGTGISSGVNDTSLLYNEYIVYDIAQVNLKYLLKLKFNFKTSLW

## CN(C)Cc1ccc(-c2nc3cccc4c3n2CCNC4=O)cc1 [AG14361]
[1]; PARP-1 inhibitor
  Ki: 5 nM
[2]
  sensitivity in clonogenic survival assay: exhibited sensitivity

## O=C1CCC(=O)N1c1cc(Cc2n[nH]c(=O)c3ccccc23)ccc1F [KU0058684]
[3]
  sensitivity to PARP inhibition in clonogenic survival assay: showing sensitivity
[4]
  in vivo efficacy, tumor growth: in vivo efficacy in blocking the growth of BRCA2-deficient tumors

## Cc1nc2c(O)cccc2c(=O)[nH]1 [NU1025]
[1]; moderately potent PARP-1 inhibitor
  Ki: 50 nM
[2]
  sensitivity in clonogenic survival assay: exhibited sensitivity
